Laboratory results: article PMC9135634 (Nature chemical biology, 2022)
Each block holds one molecule with its values, some of them ahead of it.

Key:
[1] = molecular target: HRAS(G12C) (Homo sapiens, UniProt P01112, G12C); assay: RAS BRET target engagement assay, live HEK-293 cells
[2] = molecular target: HRAS WT (Homo sapiens, UniProt P01112); assay: as above; format: cell-based
[3] = molecular target: KRAS(Y96D) (Homo sapiens, UniProt P01116, Y96D); assay: as above; format: cell-based
[4] = molecular target: KRAS(G12C) (Homo sapiens, UniProt P01116, G12C); assay: as above; format: cell-based; conditions: BRET competition
[5] = molecular target: NanoBiT-KRAS WT (Homo sapiens, UniProt P01116); assay: NanoBiT-RAS luminescence; format: cell-based; conditions: live cells; titration
[6] = molecular target: KRAS WT (Homo sapiens, UniProt P01116); assay: RAS BRET target engagement assay; format: cell-based; conditions: across all RAS variants studied
[7] = molecular target: KRAS(D54R) : CRAF(RBD) (Homo sapiens, UniProt P01116, D54R); assay: NanoBiT-KRAS:CRAF; format: cell-based
[8] = molecular target: NanoLuc-ABL1 (Homo sapiens, UniProt P00519); assay: NanoBRET TE Intracellular Kinase Assay, K-4; format: cell-based
[9] = system: HEK-293 cells; format: cell-based; conditions: RAS-independent cell line
[10] = system: A375 cells; assay: Anti-proliferative activity, CellTiter-Glo 2.0; format: cell-based; conditions: BRAF V600E, RAS-independent

Sequence of NanoLuc-ABL1 (P00519 whole entry): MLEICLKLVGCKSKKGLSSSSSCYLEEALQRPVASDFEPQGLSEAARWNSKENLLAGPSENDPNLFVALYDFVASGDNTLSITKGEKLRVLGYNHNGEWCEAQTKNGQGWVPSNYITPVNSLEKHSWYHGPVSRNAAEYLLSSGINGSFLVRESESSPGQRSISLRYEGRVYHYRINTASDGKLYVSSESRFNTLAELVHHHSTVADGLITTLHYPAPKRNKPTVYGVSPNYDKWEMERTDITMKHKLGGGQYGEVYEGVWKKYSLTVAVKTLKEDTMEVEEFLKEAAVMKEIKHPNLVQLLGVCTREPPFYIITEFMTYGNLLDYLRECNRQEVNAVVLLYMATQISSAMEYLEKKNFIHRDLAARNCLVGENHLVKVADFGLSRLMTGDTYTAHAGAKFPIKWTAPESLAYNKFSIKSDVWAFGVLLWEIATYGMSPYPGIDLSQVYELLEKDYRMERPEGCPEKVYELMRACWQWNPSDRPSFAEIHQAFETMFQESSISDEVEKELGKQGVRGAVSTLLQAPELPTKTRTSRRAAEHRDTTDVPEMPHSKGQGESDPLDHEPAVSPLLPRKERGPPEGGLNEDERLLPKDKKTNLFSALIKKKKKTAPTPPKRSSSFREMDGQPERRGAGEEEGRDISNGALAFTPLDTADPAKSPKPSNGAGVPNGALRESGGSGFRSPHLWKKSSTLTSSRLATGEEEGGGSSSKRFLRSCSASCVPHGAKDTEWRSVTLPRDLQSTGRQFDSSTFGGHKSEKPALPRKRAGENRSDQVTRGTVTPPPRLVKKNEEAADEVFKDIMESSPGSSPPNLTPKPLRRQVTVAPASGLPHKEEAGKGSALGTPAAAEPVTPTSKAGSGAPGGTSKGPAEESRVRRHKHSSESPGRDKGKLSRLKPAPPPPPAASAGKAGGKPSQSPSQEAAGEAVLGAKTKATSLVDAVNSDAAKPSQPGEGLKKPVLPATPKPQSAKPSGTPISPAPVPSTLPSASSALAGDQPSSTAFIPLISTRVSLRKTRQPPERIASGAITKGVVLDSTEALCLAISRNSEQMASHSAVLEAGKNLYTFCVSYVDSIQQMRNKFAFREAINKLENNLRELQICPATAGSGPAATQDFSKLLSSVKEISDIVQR

SMILES: CCC(=O)N1CCN(c2nc(OC[C@@H]3CCCN3C)nc3c2CCN(c2cccc4cccc(Cl)c24)C3)C[C@@H]1CC#N [Compound 10]
BRET engagement [3]: not observed

SMILES: Cn1cnc(Cn2ccc3ccc(CNCc4[nH]c5ccccc5c4[C@H]4NC(=O)c5ccc(O)cc54)cc32)c1 [BI-2852]
effect on RAS dimerization NanoBiT signal [5]: did not impact
Hill coefficients, mean [6]: 1.9 ± 0.7
Hill coefficients, range [6]: 1.3−3.3
inhibition of CRAF-RBD interaction with KRAS(D54R) dimers [7]: unable to inhibit the interaction
effect on BRET or luminescence in irrelevant target engagement assay [8]: had no effect on the BRET or luminescence

Further lines, with some results ahead:

BRET engagement [1]: showed vulnerability
BRET engagement [2]: No engagement
SMILES: C=CC(=O)N1CCN(c2nc(=O)n(-c3c(C)ccnc3C(C)C)c3nc(-c4c(O)cccc4F)c(F)cc23)[C@@H](C)C1 [AMG510, sotorasib]

hill coefficient [4]: 1.1
SMILES: C=CC(=O)N1CCN(c2ncnc3c(F)c(-c4c(O)cccc4F)c(Cl)cc23)CC1 [ARS-1620]

BRET engagement [1]: showed vulnerability
affinity for HRAS(G12C) weaker than that observed for KRAS(G12C) [1]: 3 orders of magnitude
BRET engagement [2]: No engagement
SMILES: C=C(F)C(=O)N1CCN(c2nc(OC[C@@H]3CCCN3C)nc3c2CCN(c2cccc4cccc(Cl)c24)C3)C[C@@H]1CC#N [MRTX849]
anti-proliferative / cytotoxic effect [9]: the same effect
anti-proliferative effect [10]: the same effect
